From EP0475413B1, “Carbocyclic nucleoside analogs useful as immunosuppressants” (HOECHST MARION ROUSSEL, INC., priority 1990, dated 1992) come the findings set out here.

One test deals with rat PMNs. Nature of the test: Inhibition of rrIFN-γ priming of rat PMN, Superoxide Anion (O2-) assay. It is filed as cell-based. To be noted: PMNs from rat air pouch elicited with rHuIL-1 (25ng/pouch); PMA (200ng/mL) as stimulus, rrIFN-γ (1000 Units/mL); compound 0 to 1000µM; superoxide anion readout; read-out: IC₅₀ (inhibits the rrIFN-γ priming of rat PMN in vitro). On the procedure:
The rat air pouch model of inflammation was used to obtain rat PMNs using 25ng/pouch of recombinant human interleukin-1 (rHuIL-1) to elicit the cells essentially according to the method of Esser et al. [Internat. J. Tissue Reactions XI, 291 (1989)]. PMNs were incubated along with phorbol myristate acetate (PMA) (200ng/mL), which acts as a soluble stimulus, and rrIFN-γ (1000 Units/mL), which act as a stimulatory lymphokine, in the presence of various concentrations of (1R,3S)-Cis-1-(9-adenyl)-3-hydroxy-4-cyclopentene (0 to 1000µM). The degree of macrophage priming was measured using the Superoxide Anion (O₂⁻) assay as described by Edwards et al. [Science 239, 769 (1988)].

Test [1] deals with Rat peritoneal macrophages. Nature of the test: Inhibition of priming of rat peritoneal macrophages, Superoxide Anion (O2-) assay. Particulars: Peritoneal macrophage, opsonized zymosan (3 mg/mL) as stimulus, rrIFN-γ (1000Units/mL), compound 0 to 1000µM, superoxide anion readout, read-out: IC₅₀ (inhibits the priming of rat macrophages in vitro). It is filed as cell-based. As for the experimental part:
Rat peritoneal macrophages were isolated and grown in cell culture essentially as described by Edwards et al. [Science 239, 769 (1988)]. Macrophages were incubated along with opsonized zymosan (3 mg/mL), which acts as a particulate stimulus, and recombinant rat γ-interferon (rrIFN-γ)(1000Units/mL), which acts as an activating lymphokine, in the presence of various concentrations of (1R,3S)-Cis-1-(9-adenyl)-3-hydroxy-4-cyclopentene (0 to 1000µM). The degree of macrophage priming was measured using the Superoxide Anion (O₂⁻) assay as described by Edwards et al. [Science 239, 769 (1988)].

Where a name gives a salt, the structure may show the parent alone.

With `Nc1ncnc2c1ncn2[C@H]1C=C[C@@H](O)C1` [Example 1, (1R,3S)-Cis-1-(9-adenyl)-3-hydroxy-4-cyclopentene hydrochloride], the values for the IC50 (with rat PMNs; in test [1]) were 0.015 µM and 25 µM, respectively.
